Assay results taken from patent publication US12616667B2, “Compositions and methods for improving neurological diseases and disorders” (CURASEN THERAPEUTICS, INC., priority 2021, dated 2026).
Entries after “also recorded” stand apart in the source; their conditions may differ.

Tests used:
subjects = test: Visual verbal learning test (VVLT); type: in vivo, human; conditions: for effect on VVLT performance: crossover study, 3 agents plus placebo
Procedure: Subjects are presented 30 words on a screen, one at a time, for 1 second with a 1-second interval between words over a total of 1 minute. This is repeated in 3 trials. After each trial, subjects are asked to recall as many words as they can. After the third trial, there is a delay of 2.5 hours and subjects are then tested once for delayed recall. […] Since this was a crossover study, everyone who completed Part A was dosed with the 3 agents plus placebo.

healthy subjects [1] = test: Peripheral effects of Compound 03-5 (glucose, potassium, tachycardia, tremor, palpitations) with nadolol; type: in vivo, human
Procedure: Data are presented as individual observations for all available subjects.
(§1) Eight healthy subjects aged 18-50 years were enrolled into Cohort D1 and received escalating doses of Compound 03-5 (3-12 mg) administered once daily 2 hours follow pre-administration of nadolol (1-40 mg). On all dosing days, study drug(s) were administered orally after an overnight fast of at least 8 hours.
Routine measures of ECG, vital signs, safety labs, physical exams and plasma sample collections for analysis of drug pharmacokinetics (PK) were undertaken according to the Schedule of Events (Table 1).
(§2) In Cohort D2, 8 healthy volunteers aged 55-75 years were admitted on Day −1 for a 5-day confinement period at the research facility. During this confinement, subjects received escalating doses of open label Compound 03-5 (1-10 mg) once-daily from Day 1 through Day 3 2 hours after pre-administration of open-label nadolol (3 mg) one each for the 3 dosing days according to the following schematic. Subjects remained in-residency until all study procedures are completed on Day 4.

Ts65Dn mice = conditions: increasing brain NE levels; cited from earlier work
healthy subjects [2] = test: Heart rate by triplicate ECG after Compound 03-5 with or without nadolol; type: in vivo, human; conditions: 6 mg Compound 03-5 with pre-administration of 1 mg nadolol
Procedure: FIGS. 11A-11B show the effects of Compound 03-5 monotherapy (6 mg) on heart rate (FIG. 11A) and administered 2 hours after nadolol (1-40 mg) (FIG. 11B). Heart rate was measured by triplicate ECG recordings. Data are presented as means changes from time-matched measures recorded on the day before the first dose of study drug (Day −1).
Healthy volunteers were be enrolled into 2 cohorts in a study to undertake within-subject dose titration of Compound 03-5 and/or nadolol in order to explore doses/dose combinations that mitigate peripheral effects of Compound 03-5, e.g. on heart rate, while preserving possible central effects of Compound 03-5 on cerebral perfusion and pupillary light reflex.
Cohort D1 enrolled 8 healthy subjects and undertook an evaluation of the effects of treatment on ECG following repeat dosing of Compound 03-5 in the presence of escalating doses of nadolol according to following schematic.
as §1, with “hours. […]” for “hours.”

[3] = tested on: healthy volunteers aged 55-75 years; test: CANTAB cognition battery, Cohort D2; type: in vivo, human; conditions: Compound 03-5 1, 3, 10 mg on Days 1-3, 2 hours after nadolol 3 mg
Procedure: CANTAB data from healthy adults 55-75 years of age (N=4) who received once-daily 3 mg nadolol and Compound 03-5 (1, 3, and 10 mg) on Day1, Day 2 and Day 3. […] Data are presented as mean changes from the within-day pre-dose assessment.
as §2
? Compound 03-5 dose administration. Compound 03-5 was administered as escalating doses on Day 1 (1 mg), Day 2 (3 mg) and Day 3 (10 mg). CANTAB was conducted twice in all subjects on the day prior to start of dosing (Day −1) to familiarize subjects with the platform, and prior to dosing and approximately 3 hours after Compound 03-5 administration on Days 1, 2, and 3.

patients = test: Cerebral blood flow relative to baseline after a single dose (Example 1); type: in vivo, human
healthy subjects [4] = test: ASL MRI cerebral perfusion before and after a single dose (Example 3); type: in vivo, human
Procedure: In a clinical study, healthy subjects were administered doses of clenbuterol ranging from 20 to 160 μg and ASL MRI was conducted prior to and after dosing with an objective to ascertain whether this neuroimaging method enables the detection of a clinically relevant CNS signal.
In a region of interest (ROI) analysis focusing on the hippocampus, which is well understood to be affected in neurodegenerative disorders, a single dose of 80 μg of clenbuterol causes a robust increase in perfusion (see FIG. 7). […] Taken together with other cohorts in which ASL MRI was conducted, a clear dose response relationship is seen between dose of clenbuterol and cerebral perfusion (FIG. 8). […] Our hypothesis is that by improving cerebral perfusion, particularly in areas of the brain that are relevant for symptoms that are commonly found in neurodegenerative diseases such as PD and AD, the administration of a β-AR agonist (such as a β-agent) will have a positive effect on clinically relevant symptoms such as memory and cognition.

healthy subjects [5] = test: Adaptive tracking test (visuomotor coordination and vigilance); type: in vivo, human; conditions: single dose 160 μg clenbuterol
From the text: Adaptive tracking measures visuomotor coordination and vigilance. In this test, the subject uses a joystick to move a small dot so that it stays within a continuously moving circle on a computer screen (Boland 1984). During the test, the speed of the circle is adjusted in response to the subject's ability to keep the dot in the circle, ensuring that the test is adapted to the individual subject. […] The improvement shown by subjects is in the same range as that seen with subjects treated with the acetylcholinesterase inhibitor donepezil, which is in clinical use for the treatment of mild to moderate AD (Groeneveld 2016).

[6] = doses of 80 and 160 μg clenbuterol

## CC(C)NCC(O)COc1cccc2[nH]ccc12 (stereo not shown) [pindolol]
subjects
  effect on VVLT performance: detrimental effect

## CC(C)(C)NCC(O)c1ccc(O)c(CO)c1 (stereo not shown) [salbutamol]
subjects
  effect on VVLT performance: positive effects

## CC(C)(C)NCC(O)COc1cccc2c1CC(O)C(O)C2 (stereo not shown) [nadolol]
Healthy subjects [1]; Cohort D1, pre-administered nadolol 1 mg up to 40 mg, Compound 03-5 3-12 mg
  peripheral effects of Compound 03-5 on heart rate, glucose, potassium, tachycardia, tremor and palpitations: blocked the peripheral effects
Healthy subjects [1]; Cohort D1, pre-administration of 1 mg nadolol, Compound 03-5 orally up to 6 mg
  effects of Compound 03-5 to increase heart rate and other peripheral effects including hyper glycemia and hypokalemia: substantially attenuated
Healthy subjects [1]; Cohort D2, pre-administered nadolol 3 mg, Compound 03-5 1-10 mg
  peripheral effects of Compound 03-5 on heart rate, etc.: similarly blocked the peripheral effects
Healthy subjects [1]; pre-administration of 1 mg nadolol
  effects of Compound 03-5 on blood glucose and potassium, tachycardia, tremor and palpitations: Concomitant attenuation
Healthy subjects [1]; subjects dosed with nadolol 1-40 mg, Cohorts D1 and D2
  hypokalemia caused by Compound 03-5 (blood potassium levels): attenuation of hypokalemia

## N[C@H](C(=O)O)[C@H](O)c1ccc(O)c(O)c1 [L-DOPS, L-threo-3,4-dihydroxyphenylserine]
Ts65Dn mice
  contextual learning: restored contextual learning

## CC(C)(C)NC[C@H](O)c1cccc(C#N)n1 [Compound 03-5, (S)-6-(2-(tert-butylamino)-1-hydroxyethyl)picolinonitrile]
Healthy subjects [2]
  mean maximum increase in heart rate: 7 beats per minute
Healthy subjects [1]; Compound 03-5 monotherapy 0.3 mg-6 mg, Cohorts A1-A5
  hypokalemia (blood potassium levels): Dose-dependent increases in hypokalemia
[3]
  performance in the CANTAB cognition battery: improvements in cognition; also recorded: improvements in performance

## CC(C)(C)NCC(O)c1cc(Cl)c(N)c(Cl)c1 (stereo not shown) [clenbuterol]
patients; single dose clenbuterol 160 μg
  cerebral blood flow (CBF) relative to baseline: robust global increase; also recorded: positive increase
patients; single dose clenbuterol 160 μg and nadolol 5 mg
  cerebral blood flow (CBF) relative to baseline: robust global increase
patients; single dose clenbuterol ranging from 30 to 160 μg, tracked over 3 days
  cerebral blood flow (CBF) relative to baseline: robust global increase
Healthy subjects [4]; clenbuterol dose of 40 μg
  cerebral perfusion increase as measured by CBF: minimal increase
Healthy subjects [4]; clenbuterol doses below 30 μg
  cerebral perfusion increase as measured by CBF: do not produce significant cerebral perfusion increases
Healthy subjects [4]; [6]
  improvements in perfusion in brain areas relevant to neuropathology of neurodegenerative disorders: ~25%
  increases in cerebral perfusion in hippocampus and thalamus: 20% to 25
Healthy subjects [4]; single dose 80 μg clenbuterol, 6 healthy subjects aged 44-52, hippocampus ROI
  increase in hippocampal perfusion, average: 25%
Healthy subjects [4]; single dose 160 μg clenbuterol, global, in particular hippocampus, thalamus, cortex
  cerebral perfusion, change from baseline: global increase in cerebral perfusion; also recorded: robust global increase
Healthy subjects [5]
  performance in adaptive tracking (percent time dot kept within moving circle): improved adaptive tracking; also recorded: improves
Healthy subjects [5]; healthy subjects, preliminary data
  cognition as measured by adaptive tracking and word recall: improves cognition
subjects
  effect on VVLT performance: positive effects
subjects; listed as Clenbuterol
  effect on VVLT performance: improved performance
subjects; immediate recall (Trial 1) and delayed recall, crossover study vs placebo
  VVLT improvement in correctly recalled words: 1.5 to 2 correctly recalled words
